{"source": "patent US8481597B2", "about": "“Use of (-) (3-trihalomethylphenoxy) (4-halophenyl) acetic acid derivatives for treatment of insulin resistance, type 2 diabetes, hyperlipidemia and hyperuricemia” (Metabolex, Inc., priority 1999, dated 2013)", "key": {"CYP2C9": {"molecular_target": "CYP2C9 (Homo sapiens, UniProt P11712)", "sequence (P11712 whole entry)": "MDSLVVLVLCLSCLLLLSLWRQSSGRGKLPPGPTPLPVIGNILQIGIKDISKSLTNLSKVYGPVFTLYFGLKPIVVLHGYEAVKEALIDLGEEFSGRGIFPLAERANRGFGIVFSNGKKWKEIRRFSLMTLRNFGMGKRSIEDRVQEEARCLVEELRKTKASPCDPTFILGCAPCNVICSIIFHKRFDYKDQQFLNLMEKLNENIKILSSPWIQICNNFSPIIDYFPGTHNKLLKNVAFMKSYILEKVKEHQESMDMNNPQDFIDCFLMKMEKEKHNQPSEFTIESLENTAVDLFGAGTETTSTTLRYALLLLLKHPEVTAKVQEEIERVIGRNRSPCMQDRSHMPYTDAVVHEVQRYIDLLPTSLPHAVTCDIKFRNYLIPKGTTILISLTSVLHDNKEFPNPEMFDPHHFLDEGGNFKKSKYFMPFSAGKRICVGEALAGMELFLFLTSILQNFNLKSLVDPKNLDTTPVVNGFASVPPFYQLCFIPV"}, "C57BL/6J ob/ob mice [1]": {"system": "C57BL/6J ob/ob mice", "assay": "Glucose lowering of (±) and (−) halofenate analogs in ob/ob mice (Example 12)", "type": "in vivo", "conditions": "for time points with significantly reduced plasma glucose concentrations: 150 mg/kg oral single dose"}, "C57BL/6J ob/ob mice [2]": {"system": "C57BL/6J ob/ob mice", "assay": "Time course of glucose-lowering after a single oral dose in diabetic ob/ob mice (Example 8)", "type": "in vivo", "conditions": "single oral dose 250 mg/kg; for plasma glucose at 24 hours: vehicle 408±16.2"}, "C57BL/6J ob/ob mice [3]": {"system": "C57BL/6J ob/ob mice", "assay": "Glucose and insulin lowering on daily oral administration in diabetic ob/ob mice (Example 9)", "type": "in vivo", "conditions": "for plasma glucose relative to control animals, in words / plasma insulin relative to vehicle control, in words: daily oral, racemate 250 mg/kg/day, enantiomers 125 and 250 mg/kg/day", "description": "The gavage volume was 10 ml/kg."}, "Zucker fa/fa rats [4]": {"system": "Zucker fa/fa rats", "assay": "Oral glucose challenge in Zucker fatty rats (Example 10)", "type": "in vivo", "conditions": "racemate 100 mg/kg, enantiomers 50 and 100 mg/kg", "description": "(§1) Prior to treatment, rats were assigned to 6 groups based on body weight. Each treatment group consisted of 8 rats. […] The gavage volume was 10 ml/kg. All rats received an oral glucose challenge (1.9 g/kg) 5.5 hours after the treatment and 4 hours after withdrawal of the food. Blood samples were taken at 0, 15, 30, 60, 90, 120, and 180 minutes following the glucose challenge for plasma glucose measurement. […] On day 5, rats received the intravenous insulin (0.75 U/kg) 5.5 hours after the last dose and 4 hours after withdrawal of the food. Blood samples were taken at 3, 6, 9, 12, 15 and 18 minutes following the insulin injection for plasma glucose measurement."}, "Zucker fa/fa rats [5]": {"system": "Zucker fa/fa rats", "assay": "Short insulin tolerance test in Zucker fatty rats (Example 10)", "type": "in vivo", "conditions": "50 mg/kg/day oral for 5 days", "description": "as §1"}, "[6]": {"system": "Zucker diabetic fatty (ZDF) rats", "assay": "Lipid lowering in Zucker Diabetic Fatty rats (Example 11)", "type": "in vivo", "conditions": "for plasma cholesterol, in words: Experiment I, 13 days, racemate 50 mg/kg/day, enantiomers 25 mg/kg/day", "description": "Male Zucker diabetic fatty (ZDF) rats were obtained from GMI Laboratories (Indianapolis, Ind.) at 9 weeks of age. Vehicle or enantiomers of halofenate administered by oral gavage on a daily basis starting at 74 days of age. Initial blood samples were obtained for analysis one day before treatment and at the indicated times in the treatment protocol. Blood was analyzed for plasma triglyceride and cholesterol by standard techniques."}, "ZDF rats": {"system": "ZDF rats", "assay": "Plasma glucose in ZDF rats, (−) halofenate vs (+) halofenate (Example 13)", "type": "in vivo", "conditions": "50 mg/kg oral once a day for 3 days", "description": "Male 8-9 week old ZDF rats were purchased from Genetic Models, Inc. (Indianapolis, Ind.). […] Rats that had 4-hour fasting plasma glucose levels between 200 and 500 mg/dL were used. […] The gavage volume was 5 ml/kg. Blood samples were taken at 5 hours post dose on day 2 and 3."}, "[7]": {"system": "oxonic acid induced hyperuricemic rats", "assay": "Plasma uric acid in oxonic acid induced hyperuricemic rats (Example 17)", "type": "in vivo, SD rats", "conditions": "oral 50 mg/kg for 3 days, 100 mg/kg on the 4th day; blood 6 hours post gavage on day 4", "text": "Male SD rats, weight 275-300 g were purchased from Charles River. […] To establish a hyperuricemic state, animals were put on a diet containing 2.5% (w/w) of oxonic acid (Sigma Chemical Co, St. Louis, Mo., USA) throughout the experiment. Oxonic acid elevates plasma uric acid by inhibiting uricase. Rats were screened for plasma uric acid levels 3 days after they were placed on the diet, and those that had extreme plasma uric acid levels were excluded. Rats were assigned to one of three groups and the mean uric acid levels were equivalent in each group. […] Oxonic acid was delivered in a liquid formulation containing 0.9% (w/v) methylcellulose. The gavage and injection volumes were 5 ml/kg. Blood samples were taken at 6 hours post oral gavage on day 4. Plasma uric acid levels were determined colorimetrically using the Infinity Uric Acid Reagent (Sigma Chemical Co, St. Louis, Mo., USA)."}, "cyclooxygenase 1 (COX-1)": {"molecular_target": "T1, cyclooxygenase 1 (COX-1) (Homo sapiens, UniProt P23219)", "T1 construct": "was conducted using fresh human blood from healthy donors; endogenous in cells; host or cells: heparinized fresh human whole blood, stimulated with calcium ionophore A23187", "T1 sequence (P23219 24-599)": "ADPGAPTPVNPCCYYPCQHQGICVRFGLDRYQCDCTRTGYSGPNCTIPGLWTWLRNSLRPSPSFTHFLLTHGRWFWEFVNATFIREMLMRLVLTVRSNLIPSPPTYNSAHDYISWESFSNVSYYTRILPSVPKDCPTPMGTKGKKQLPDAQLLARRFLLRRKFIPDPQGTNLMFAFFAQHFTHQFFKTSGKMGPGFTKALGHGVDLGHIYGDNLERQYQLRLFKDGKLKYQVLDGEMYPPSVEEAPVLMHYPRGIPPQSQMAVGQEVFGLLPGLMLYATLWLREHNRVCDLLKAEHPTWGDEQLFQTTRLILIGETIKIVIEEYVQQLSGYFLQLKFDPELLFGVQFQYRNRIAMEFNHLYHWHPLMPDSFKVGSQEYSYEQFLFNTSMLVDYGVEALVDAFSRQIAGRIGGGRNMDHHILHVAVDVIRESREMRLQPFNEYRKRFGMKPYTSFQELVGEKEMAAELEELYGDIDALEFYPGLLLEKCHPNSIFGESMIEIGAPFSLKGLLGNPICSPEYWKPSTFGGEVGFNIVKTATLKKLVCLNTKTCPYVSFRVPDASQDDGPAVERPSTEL", "assay": "COX-1 inhibition in human whole blood assay, TXB2 production (Example 19)", "type": "cell-based", "description": "An assay for cyclooxygenase 1 (COX-1) inhibition by the compounds of the present invention was conducted using fresh human blood from healthy donors. […] The enzyme was activated by the commercially available calcium ionophore A23187.\nThis bioassay is based on the production of thromboxane B2 (TXB2) after COX-1 activation. When activated, COX-1 generates prostaglandin H2 which is then converted to thromboxane A2 (TXA2) by thromboxane synthase and then finally to thromboxane B2 by non-enzymatic […]. In addition, PGE2 levels were measured to exclude inhibition of thromboxane synthase. This assay allows discrimination between COX-1 and thromboxane synthase inhibition.\nTXB2 and PGE2 were measured by commercially available immunoassay kits purchased from Assay Designs, Inc. (Ann Arbor, Mich.). All other chemicals were from Sigma except as noted. […] Immediately before use, all compounds were diluted 1:10 in RPMI-1640 medium (Gibco BRL, 11875-093) to make a 10× concentrated stock solution. The 10×RPMI-1640 stock solutions of the calcium ionophore were prepared in an identical manner. […] COX-1 was then activated by adding 25 microliters of the 10× stock solution of 25 micromolar calcium ionophore. The plates were shaken for 10 minutes at room temperature and then incubated at 37° C. for an additional 30 minutes. After these incubation times, the plates were centrifuged at 2,000 g for 5 minutes. Two microliters of plasma were taken from each reaction for the measurement of TXB2 using an enzyme immunoassay kit from Assay Designs, Inc. The PGE2 level in the same reaction was measured using a PGE2 enzyme immunoassay kit from Assay Designs, Inc.\nThe results of the assay are presented as the percent inhibition of COX-1 activity."}, "[8]": {"conditions": "cited from earlier work"}, "[9]": {"conditions": "Experiment II, 37.5 mg/kg/day (High dose)"}}, "note": "“Also recorded” adds a separate entry of the source."}
{"smiles": "Nc1ccc(S(=O)(=O)Nc2ccnn2-c2ccccc2)cc1", "note": "[SFZ, sulfaphenazole, reference compound]", "values": [{"measurement": "4-OH TB Production", "setting": "CYP2C9", "value": "BQL"}, {"measurement": "% Inhibition (Tolbutamide, CYP2C9)", "setting": "CYP2C9; both, human, microsomes", "value": "~100", "unit": "%"}]}
{"smiles": "CC(=O)NCCOC(=O)C(Oc1cccc(C(F)(F)F)c1)c1ccc(Br)cc1", "note": "(single isomer, unassigned; (-)) [(−)Analog 29]", "values": [{"measurement": "time points with significantly reduced plasma glucose concentrations", "setting": "C57BL/6J ob/ob mice [1]", "value": 6, "unit": "h"}]}
{"smiles": "O=C(NCCOC(=O)C(Oc1cccc(C(F)(F)F)c1)c1ccc(Cl)cc1)c1ccccc1", "note": "(single isomer, unassigned; (-)) [(−)Analog 36]", "values": [{"measurement": "time points with significantly reduced plasma glucose concentrations", "setting": "C57BL/6J ob/ob mice [1]", "value": 6, "unit": "h"}]}
{"smiles": "CC(=O)NCCOC(=O)C(Oc1cccc(C(F)(F)F)c1)c1ccc(Cl)cc1", "note": "(single isomer, unassigned; (+)) [(+) halofenate, (+) 2-Acetamidoethyl 4-Chlorophenyl-(3-trifluoromethylphenoxy)-acetate, reference compound]", "values": [{"measurement": "earliest time of plasma glucose reduction / significant activity", "setting": "C57BL/6J ob/ob mice [2]", "value": 4.5, "unit": "h"}, {"measurement": "time of peak glucose-lowering activity", "setting": "C57BL/6J ob/ob mice [2]", "value": 7.5, "unit": "h"}, {"measurement": "plasma glucose at 24 hours", "setting": "C57BL/6J ob/ob mice [2]", "value": "306 ± 28.5", "unit": "mg/dL"}, {"measurement": "overnight fasting plasma insulin after 5 days treatment, in words", "setting": "C57BL/6J ob/ob mice [3]; 125 mg/kg/day oral, ob/ob mice", "value": "did not lower plasma insulin"}, {"measurement": "overnight fasting plasma insulin after 5 days treatment, in words", "setting": "C57BL/6J ob/ob mice [3]; 250 mg/kg/day oral, ob/ob mice", "value": "resulted in a decrease in plasma insulin"}, {"measurement": "plasma glucose following an overnight fast after 5 days treatment", "setting": "C57BL/6J ob/ob mice [3]; 250 mg/kg/day oral, ob/ob mice, control 185.4±12.3", "value": "127.2 ± 9.7", "unit": "mg/dL"}, {"measurement": "plasma glucose relative to control animals, in words", "setting": "C57BL/6J ob/ob mice [3]", "value": "Significant decreases in glucose levels"}, {"measurement": "plasma insulin relative to vehicle control, in words", "setting": "C57BL/6J ob/ob mice [3]", "value": "insulins were lower"}, {"measurement": "incremental glucose area under the curve (AUC) relative to vehicle control, in words", "setting": "Zucker fa/fa rats [4]", "value": "not statistically significant"}, {"measurement": "insulin sensitivity (slope of decline in glucose after i.v. insulin), in words", "setting": "Zucker fa/fa rats [5]", "value": "small effect on insulin sensitivity that was not significantly different from the vehicle-treated control"}, {"measurement": "plasma cholesterol, in words", "setting": "[6]", "value": "remained relatively constant"}, {"measurement": "days of treatment with significantly lower plasma cholesterol vs control", "setting": "[6]; [9]", "value": 7, "unit": "days"}, {"measurement": "plasma triglyceride, in words", "setting": "[6]; [9]", "value": "significant lowering of plasma triglyceride"}, {"measurement": "plasma glucose concentrations compared to vehicle-treated animals, in words", "setting": "ZDF rats", "value": "failed to reduce plasma glucose concentrations"}, {"measurement": "plasma uric acid levels, in words", "setting": "[7]", "value": "lowered plasma uric acid levels, but it was not statistically significant"}]}
{"smiles": "NC(=O)COC(=O)C(Oc1cccc(C(F)(F)F)c1)c1ccc(Cl)cc1", "note": "(racemic) [(±)Analog 37]", "values": [{"measurement": "time points with significantly lowered plasma glucose concentrations", "setting": "C57BL/6J ob/ob mice [1]; 125 mg/kg oral once a day", "value": 54, "unit": "h"}]}
{"smiles": "CN(C)C(=O)COC(=O)C(Oc1cccc(C(F)(F)F)c1)c1ccc(Cl)cc1", "note": "(single isomer, unassigned; (-)) [(−)Analog 38]", "values": [{"measurement": "time points with significantly reduced plasma glucose concentrations", "setting": "C57BL/6J ob/ob mice [1]", "value": 6, "unit": "h"}]}
{"smiles": "CN(C)CCOC(=O)C(Oc1cccc(C(F)(F)F)c1)c1ccc(Cl)cc1", "note": "(racemic) [(±)Analog 35]", "values": [{"measurement": "6 hours Glucose", "setting": "C57BL/6J ob/ob mice [1]; 125 mg/kg oral once a day, 6 hours after first dose", "value": "319.6 ± 26.7", "unit": "mg/dL"}, {"measurement": "30 hours Glucose", "setting": "C57BL/6J ob/ob mice [1]; 125 mg/kg oral once a day, 6 hours after second dose", "value": "276.8 ± 17.6", "unit": "mg/dL"}, {"measurement": "54 hours Glucose", "setting": "C57BL/6J ob/ob mice [1]; 125 mg/kg oral once a day, 6 hours after third dose", "value": "286.2 ± 31.5", "unit": "mg/dL"}, {"measurement": "Predose Glucose", "setting": "C57BL/6J ob/ob mice [1]; baseline before dosing, group later given 125 mg/kg oral once a day", "value": "387.0 ± 18.0", "unit": "mg/dL"}]}
{"smiles": "NC(=O)COC(=O)C(Oc1cccc(C(F)(F)F)c1)c1ccc(Cl)cc1", "note": "(single isomer, unassigned; (-)) [(−)Analog 37]", "values": [{"measurement": "time points with significantly reduced plasma glucose concentrations", "setting": "C57BL/6J ob/ob mice [1]", "value": 6, "unit": "h"}]}
{"smiles": "CC(=O)NCCOC(=O)C(Oc1cccc(C(F)(F)F)c1)c1ccc(Cl)cc1", "note": "(racemic) [racemic halofenate, 2-acetamidoethyl (4-chlorophenyl) (3-trifluoromethylphenoxy)acetate, reference compound]", "values": [{"measurement": "time course of glucose-lowering, in words", "setting": "C57BL/6J ob/ob mice [2]", "value": "significantly reduced plasma glucose concentrations at most of the timepoints"}, {"measurement": "time of peak glucose-lowering activity", "setting": "C57BL/6J ob/ob mice [2]", "value": 9, "unit": "h"}, {"measurement": "plasma glucose at 24 hours", "setting": "C57BL/6J ob/ob mice [2]", "value": "259.3 ± 20.8", "unit": "mg/dL"}, {"measurement": "plasma glucose relative to control animals, in words", "setting": "C57BL/6J ob/ob mice [3]", "value": "Significant decreases in glucose levels"}, {"measurement": "plasma insulin relative to vehicle control, in words", "setting": "C57BL/6J ob/ob mice [3]", "value": "insulins were lower"}, {"measurement": "incremental glucose area under the curve (AUC) relative to vehicle control, in words", "setting": "Zucker fa/fa rats [4]", "value": "not statistically significant"}, {"measurement": "plasma glucose after oral glucose challenge, in words", "setting": "Zucker fa/fa rats [4]; single oral dose 5.5 hours before challenge", "value": "The plasma glucose was reduced"}, {"measurement": "plasma cholesterol, in words", "setting": "[6]", "value": "plasma cholesterol declined with treatment"}, {"measurement": "IC50", "setting": "cyclooxygenase 1 (COX-1)", "value": "~1000", "unit": "µM"}, {"measurement": "side effects in patients", "setting": "[8]; previous clinical studies (Friedberg et al. 1986)", "value": "gastrointestinal bleeding from stomach and peptic ulcers; also recorded: increased risk of gastrointestinal side effects such as upper gastrointestinal ulcers and bleeding"}, {"measurement": "effect on glucose in patients with diabetes treated with the drug alone", "setting": "[8]; previous studies from the 1970's", "value": "minimal effect on glucose"}]}
